Data reported in paper PMC7076525, “Pharmacokinetics and Intestinal Metabolism of Compound K in Rats and Mice” (Pharmaceutics, 2020).
≈ marks a conversion by molar mass, not a printed value. Where “and” joins values, the source holds several entries; their conditions need not be identical. Identical values can stand only once. Like-named read-outs stand apart in the source and are kept apart here.

Experiments:
[1] = Pharmacokinetics, biliary excretion and metabolism of compound K in bile cannulated and non-bile cannulated rats; assay type: in vivo, SD rats; conditions: for AUC(0-inf) / half-life / AUC(0-t) / C0: SD, rat, plasma, iv; for AUC(0-t): read-out: AUC12 h; for C0: read-out: C0 (initial plasma concentration)
Experimental: SD rats were randomly divided into two groups: the non-bile cannulated control group and the bile cannulated group. For the bile cannulated rats, the femoral artery, femoral vein, and bile duct were cannulated with polyethylene tubes (PE-50 and PE-10; Jungdo, Seoul, Korea) under light anesthesia with isoflurane. For the control group, the femoral artery and femoral vein were cannulated with PE-50. Compound K was injected intravenously via the femoral vein at 2 mg/kg. Blood samples (approximately 200 µL) were collected from the femoral artery at 0, 0.25, 0.5, 1, 2, 4, and 8 h after the compound K injection. After each blood sampling, normal saline was injected into the femoral vein to compensate for blood loss. Bile samples were collected every 2 h for a total of 12 h. The blood samples were centrifuged at 16,000× g for 10 min, and 50 μL aliquots of plasma and 50 μL aliquots of bile were stored at −80 °C until the compound K analysis. In the non-bile cannulated rats, the complete contents of the entire gastrointestinal tract were collected using a […] filled with 30 mL pre-warmed saline. The contents were homogenized with tissue homogenizer, and 50 μL aliquots of intestinal fecal homogenates were stored at −80 °C until the analysis. The 50 μL samples of plasma, urine, 10% fecal homogenates, bile, and intestinal fecal homogenates were each mixed with 60 μL of IS (20 ng/mL 13C-caffeine in water) and 600 μL of methyl tert-butyl ether (MTBE). The mixtures were vortexed vigorously for 10 min and centrifuged at 16,000× g for 5 min. After centrifugation, the samples were frozen at −80 °C for 2 h. […] The residue was reconfigured with 200 μL of 80% methanol consisting of 0.1% formic acid, and a 10 μL aliquot was injected into the liquid chromatography–tandem mass spectrometry (LC–MS/MS) system. Compound K and PPD concentrations were analyzed using a modified LC-MS/MS method of Jin et al. with an Agilent 6430 triple quadrupole LC-MS/MS system (Agilent, Wilmington, DE, USA). […] The mobile phase consisted of 0.1% formic acid in water (8%) and 0.1% formic acid in methanol (92%) at a flow rate of 0.15 mL/min. Pharmacokinetic parameters were estimated using non-compartmental methods (WinNonlin version 2.0, Pharsight Co., Certara, NJ, USA).

[2] = set-up: method as in PMID 28955238; conditions: humans, cited from earlier work
[3] = set-up: method as in PMID 16302287, PMID 32148404, PMID 30013338, PMID 26680316; conditions: cited from earlier work
[4] = test system: Caco-2 cells; set-up: method as in PMID 16302287, PMID 32148404, PMID 30013338, PMID 26680316; conditions: cited from earlier work
[5] = Pharmacokinetic study after intravenous compound K (2 mg/kg) in SD rats: plasma, feces, urine; conditions: for Recovery48 h Feces: over 48 h (Table 4)
[6] = Pharmacokinetic study after intravenous compound K (2 mg/kg) in ICR mice: plasma, feces, urine
[7] = Tissue distribution study after intravenous compound K (2 mg/kg) in SD rats; assay type: in vivo; conditions: compound K IV 2 mg/kg
Experimental: (§1) ICR mice and SD rats received compound K intravenously at a single dose of 2 mg/kg via tail vein and were returned to the metabolic cage with water and chow ad libitum. The animals were euthanized and blood samples (approximately 200 µL) were collected from the abdominal artery at 0.17, 0.5, 2, 4, 8, and 24 h after intravenous injection. The liver, kidney, brain, heart, lung, spleen, and testis were immediately excised, gently washed with ice-cold saline, and weighed. The tissue samples were homogenized with 4 volumes of saline. Aliquots (50 μL) of plasma and 20% tissue homogenates were stored at –80 °C until the analysis of compound K.
(§2) The plasma samples and 20% tissue homogenates samples were each mixed with 60 μL of IS (20 ng/mL 13C-caffeine in water) and 600 μL of MTBE. The mixtures were vortexed vigorously for 10 min and centrifuged at 16,000× g for 5 min. After centrifugation, the samples were frozen at −80 °C for 2 h. The upper layer was transferred to a clean tube and evaporated to dryness under a nitrogen stream. The residue was reconfigured with 200 μL of 80% methanol consisting of 0.1% formic acid, and a 10 μL aliquot was injected into the LC-MS/MS system.
(§3) Compound K and PPD concentrations were analyzed using a modified LC-MS/MS method of Jin et al. with an Agilent 6430 triple quadrupole LC-MS/MS system (Agilent, Wilmington, DE, USA). […]

[8] = Tissue distribution study after intravenous compound K (2 mg/kg) in ICR mice; assay type: in vivo; conditions: compound K IV 2 mg/kg
Experimental: as §1, §2, §3

[9] = test system: Oatp transporters; assay: Inhibition of hepatic uptake of compound K by rifampin pre-treatment in SD rats; assay type: in vivo; conditions: rifampin 20 mg/kg PO 1 h before compound K IV 2 mg/kg, 0.5 and 2 h
Experimental: (§4) To investigate the effect of rifampin (a representative inhibitor of the organic anion-transporting polypeptide (Oatp) transporters) on the hepatic distribution of compound K, ICR mice and SD rats were randomly divided into either control or rifampin groups. The rifampin group was orally administered with rifampin solution (20 mg/kg, dissolved in DMSO: saline = 2:8, v/v) and the control group received only the vehicle via oral gavage. One hour after rifampin treatment, mice and rats received compound K intravenously at a single dose of 2 mg/kg via tail vein. The animals were euthanized and blood samples (approximately 200 µL) were collected from the abdominal artery at 0.5 and 2 h after intravenous injection. The liver tissues were immediately excised, gently washed with ice-cold saline, and homogenized with 4 volumes of saline. Aliquots (50 μL) of plasma and 20% liver homogenates were stored at −80 °C until the analysis of compound K.
as §2, with “The residue was reconfigured with 200 μL of 80% methanol consisting of 0.1% formic acid, and a 10 μL aliquot was injected into the LC-MS/MS system.” left out

[10] = test system: Oatp transporters; assay: Inhibition of hepatic uptake of compound K by rifampin pre-treatment in ICR mice; assay type: in vivo; conditions: rifampin 20 mg/kg PO 1 h before compound K IV 2 mg/kg, 0.5 and 2 h
Experimental: as §4
as §2, with “The residue was reconfigured with 200 μL of 80% methanol consisting of 0.1% formic acid, and a 10 μL aliquot was injected into the LC-MS/MS system.” left out

[11] = cited from earlier work
[12] = set-up: method as in PMID 16302287; conditions: rats, cited from earlier work
[13] = test system: P-glycoprotein (P-gp); set-up: method as in PMID 22584255; conditions: single oral dose 10 mg/kg; cited from earlier work
[14] = set-up: method as in PMID 22584255, PMID 30013338, PMID 26680316; conditions: cited from earlier work
[15] = single oral 200 mg compound K tablet, fasting
[16] = rat, after compound K IV 2 mg/kg
[17] = rats, after compound K IV 2 mg/kg
[18] = ICR, mouse, plasma, iv, 2 mg/kg
[19] = mice, after compound K IV 2 mg/kg
[20] = mouse, after compound K IV 2 mg/kg, over 48 h (Table 4)
[21] = 2 mg/kg, bile cannulated rat, compound K IV 2 mg/kg
[22] = 2 mg/kg, non-bile cannulated rat, compound K IV 2 mg/kg

CC(C)=CCCC(C)(O)C1CCC2(C)C1C(O)CC1C3(C)CCC(O)C(C)(C)C3CCC12C [PPD, 20(S)-protopanaxadiol]
presence in bile samples collected over 12 h ([1]; bile-cannulated rats, after compound K IV 2 mg/kg): without PPD | detection in plasma samples ([1]; bile-cannulated rats, after compound K IV 2 mg/kg, 2 mg/kg): could not be detected | detection in plasma samples at 8 h ([1]; control rats (non-bile cannulated), after compound K IV 2 mg/kg, not present in 2 h sample): detected | amount in intestinal fecal samples, 12 h compared to 2 h ([1]; rats without bile cannulation, after compound K IV 2 mg/kg): greater in the 12 h samples compared to the 2 h samples | Cmax [2, 15]: 5.7 ng/mL | Tmax [2, 15]: 24.5 h | AUC ratio of PPD to compound K ([2]; single oral 200 mg compound K tablet): 0.04 | LogP value [3]: 5.53 | permeability [4]: 1.15e-06 cm/s | concentration at 48 h ([5]; SD, rat, plasma, iv, 2 mg/kg): < 5 ng/mL | recovery of PPD relative to that of compound K in feces ([5]; rat feces, after compound K IV 2 mg/kg): 3.4 fold | metabolic ratio (PPD to compound K ratio) in plasma ([5]; rat plasma, after compound K IV 2 mg/kg): 0.2–1.6 | Recovery48 h Feces [5, 16]: 46.6 ± 4.9 % of Dose | detection in plasma and fecal samples [5, 17]: detected | detection in urine samples [5, 17]: not detected | concentration at 48 h [6, 18]: < 5 ng/mL | detection in plasma and fecal samples [6, 19]: detected | detection in urine samples [6, 19]: not detected | recovery of PPD relative to that of compound K in feces ([6]; mouse feces, after compound K IV 2 mg/kg): 1.2 fold | metabolic ratio (PPD to compound K ratio) in plasma ([6]; mouse plasma, after compound K IV 2 mg/kg): 0.02–0.08 | Recovery48 h Feces [6, 20]: 34.4 ± 5.8 % of Dose

CC(C)=CCCC(C)(OC1OC(CO)C(O)C(O)C1O)C1CCC2(C)C1C(O)CC1C3(C)CCC(O)C(C)(C)C3CCC12C [compound K, 20-O-beta-(D-Glucopyranosyl)-20(S)-protopanaxadiol]
AUC ratios of other tissues (kidney, heart, lung, pancreas, testis, brain) to plasma [7]: much lower than the liver/plasma AUC ratio | Kp ([7]; male, SD, rat, liver (relative to plasma), 0.17-24 h, read-out: liver to plasma AUC ratio): 11.1 | AUC ratios of other tissues (kidney, heart, lung, pancreas, testis, brain) to plasma [8]: much lower than the liver/plasma AUC ratio | Kp ([8]; male, ICR, mouse, liver (relative to plasma), 0.17-24 h, read-out: liver to plasma AUC ratio): 16.7 | liver to plasma concentration ratios with rifampin pre-treatment versus control [9]: decreased | plasma concentration of compound K with rifampin pre-treatment versus control [9]: increased | liver to plasma concentration ratios with rifampin pre-treatment versus control [10]: decreased | plasma concentration of compound K with rifampin pre-treatment versus control [10]: increased | AUC(0-inf) [1, 21]: 235 ± 126 ng·h/mL | half-life [1, 21]: 0.78 ± 0.11 h | AUC(0-t) [1, 21]: 211 ± 87.3 ng·h/mL | C0 [1, 21]: 436 ± 326 ng/mL | AUC(0-inf) [1, 22]: 517 ± 249 ng·h/mL | half-life [1, 22]: 2.4 ± 0.61 h | AUC(0-t) [1, 22]: 496 ± 253 ng·h/mL | C0 [1, 22]: 451 ± 192 ng/mL | Bile12 h (biliary excretion) ([1]; bile cannulated rat, compound K IV 2 mg/kg, bile collected for 12 h): 39.1 ± 5.7 % of dose | elimination constant ([1]; bile-cannulated rats, one-compartment model, estimated using 5 points, r^2 0.92): 0.90 h⁻¹ | elimination constant ([1]; non-bile cannulated (control) rats, estimated using 3 points, r^2 0.94): 0.29 h⁻¹ | increase of AUC by high-fat meal compared with fasting group ([2]; 200 mg compound K tablet): 2.2 fold | increase of Cmax by high-fat meal compared with fasting group ([2]; 200 mg compound K tablet): 2.0 fold | Cmax ([11]; 12 Japanese subjects, single oral fermented ginseng tablet (274.4 mg total; 2.2 mg as compound K)): 41.5 ng/mL | Cmax ([11]; subjects given non-fermented Korean red ginseng extract (3 g total; 0 mg as compound K)): 3.2 to 24.8 ng/mL | mean Cmax ([11]; subjects given oral fermented Korean red ginseng (3 g total; 10.9 mg as compound K)): 254.5 ng/mL | AUC increase ([12]; intravenous injection, dose range 1–10 mg/kg (dose increase 10-fold)): 11.6 fold | AUC increase ([12]; oral administration, dose range 5–20 mg/kg (dose increase four-fold)): 75.8 fold | AUC increase in P-gp knock-out mice compared to wild-type mice [13]: 23.5 fold | LogP value [3]: 3.85 | permeability [4]: 0.5–2 × 10^−6 cm/s | aqueous solubility [14]: 33 µg/mL (≈ 53 µM) | AUC(0-inf) ([5]; SD, rat, plasma, iv, 2 mg/kg): 670 ± 284 ng·h/mL | AUC(0-t) ([5]; SD, rat, plasma, iv, 2 mg/kg): 639 ± 299 ng·h/mL | C0 ([5]; SD, rat, plasma, iv, 2 mg/kg): 75.3 ± 23.3 ng/mL | MRT ([5]; SD, rat, plasma, iv, 2 mg/kg): 8.9 ± 0.4 h | Vd ([5]; SD, rat, plasma, iv, 2 mg/kg): 31.8 ± 3.1 L/kg | clearance ([5]; SD, rat, plasma, iv, 2 mg/kg): 59 ± 21.8 mL/min/kg | half-life ([5]; SD, rat, plasma, iv, 2 mg/kg): 7.3 ± 0.4 h | Recovery48 h Feces [5, 16]: 13.8 ± 7.1 % of Dose | Feces48 h (fecal recovery) ([5]; rat, compound K IV 2 mg/kg, 48 h, 2 mg/kg): 13.8 % of dose and ~13.8 ± 7.1 % of dose | CL and Vd, fold larger in rats than in mice ([5]; rats versus mice, compound K IV 2 mg/kg): about five-fold larger | AUC(0-t) [6, 18]: 3760 ± 1640 ng·h/mL | C0 [6, 18]: 400 ± 137 ng/mL | MRT [6, 18]: 11.8 ± 2 h | Vd [6, 18]: 7.08 ± 2.6 L/kg | clearance [6, 18]: 10.4 ± 4.9 mL/min/kg | half-life [6, 18]: 11.4 ± 1.5 h | Recovery48 h Feces [6, 20]: 28.4 ± 5.9 % of Dose | Recovery48 h Urine [6, 20]: 0.02 ± 0.01 % of Dose
